System: primary human T-cells
Experiment: Cytokine secretion on protein level in activated primary human T-cells (13-plex FACS / Luminex, supernatant)
Format: cell-based
Method in brief: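 First, T-cells are isolated from healthy donors' blood. Next, they and HaCaT keratinocytes are activated for 48 h with PMA/Ionomycin or IFN-γ in the presence of tripeptides. Finally, secreted cytokines are quantified in supernatants by 13-plex FACS at 48 and 72 h.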

[1] = primary human T-cells stimulated with IFN-γ, 10^−9M
[2] = primary human T-cells stimulated with IFN-γ, substance 10^−9M
[3] = primary human T-cells stimulated with PBS, 10^−9M
[4] = primary human T-cells stimulated with PBS, substance 10^−9M
[5] = primary human T-cells stimulated with PMA/Ionomycin, 10^−9M
[6] = primary human T-cells stimulated with PMA/Ionomycin, substance 10^−9M

Question: For “alpha-melanocyte-stimulating hormone [α-MSH, reference compound]”, which IL-1 cytokine concentration [1] is on record?
Answer: 229 pg/mL

Question: What about the IL-2 cytokine concentration [1] of the same substance?
Answer: 0 pg/mL

Question: What about the IL-4 cytokine concentration [1] of the same substance?
Answer: 136.29 pg/mL

Question: And the IL-5 cytokine concentration [1]?
Answer: 145.89 pg/mL

Question: And the IL-6 cytokine concentration [1]?
Answer: 70.19 pg/mL

Question: What about the IL-9 cytokine concentration [1] of the same substance?
Answer: 90.3 pg/mL

Question: What about the IL-10 cytokine concentration [1] of the same substance?
Answer: 109.15 pg/mL

Question: What about the IL-12p70 cytokine concentration [1] of the same substance?
Answer: 727.17 pg/mL

Question: And the IL-13 cytokine concentration [1]?
Answer: 59.46 pg/mL

Question: And the IL-17 cytokine concentration [1]?
Answer: 125.8 pg/mL

Question: What about the IL-22 cytokine concentration [1] of the same substance?
Answer: 0 pg/mL

Question: And the TNF-α cytokine concentration [1]?
Answer: 155.15 pg/mL

Question: And the IL-1 cytokine concentration [2]?
Answer: 0 pg/mL

Question: And the IL-2 cytokine concentration [2]?
Answer: 0 pg/mL

Question: And the IL-4 cytokine concentration [2]?
Answer: 60.49 pg/mL

Question: What about the IL-5 cytokine concentration [2] of the same substance?
Answer: 0 pg/mL

Question: And the IL-6 cytokine concentration [2]?
Answer: 64.54 pg/mL

Question: What about the IL-9 cytokine concentration [2] of the same substance?
Answer: 5.27 pg/mL

Question: And the IL-10 cytokine concentration [2]?
Answer: 43.9 pg/mL

Question: And the IL-12 cytokine concentration [2]?
Answer: 0 pg/mL

Question: And the IL-12p70 cytokine concentration [2]?
Answer: 0 pg/mL

Question: What about the IL-13 cytokine concentration [2] of the same substance?
Answer: 0 pg/mL

Question: What about the IL-17 cytokine concentration [2] of the same substance?
Answer: 0 pg/mL

Question: What about the IL-22 cytokine concentration [2] of the same substance?
Answer: 0 pg/mL

Question: What about the TNF-α cytokine concentration [2] of the same substance?
Answer: 18.85 pg/mL

Question: What about the IFN-γ cytokine concentration [3] of the same substance?
Answer: 584.13 pg/mL

Question: And the IL-1 cytokine concentration [3]?
Answer: 233.71 pg/mL

Question: What about the IL-2 cytokine concentration [3] of the same substance?
Answer: 166.83 pg/mL

Question: And the IL-4 cytokine concentration [3]?
Answer: 158.58 pg/mL

Question: What about the IL-5 cytokine concentration [3] of the same substance?
Answer: 26.63 pg/mL

Question: What about the IL-6 cytokine concentration [3] of the same substance?
Answer: 103.97 pg/mL

Question: And the IL-9 cytokine concentration [3]?
Answer: 93.72 pg/mL

Question: And the IL-10 cytokine concentration [3]?
Answer: 154.89 pg/mL

Question: And the IL-12p70 cytokine concentration [3]?
Answer: 100.99 pg/mL

Question: And the IL-13 cytokine concentration [3]?
Answer: 74.71 pg/mL

Question: What about the IL-17 cytokine concentration [3] of the same substance?
Answer: 123.27 pg/mL

Question: And the IL-22 cytokine concentration [3]?
Answer: 2258.05 pg/mL

Question: What about the TNF-α cytokine concentration [3] of the same substance?
Answer: 127.96 pg/mL

Question: What about the IFN-γ cytokine concentration [4] of the same substance?
Answer: 0 pg/mL

Question: And the IL-1 cytokine concentration [4]?
Answer: 0 pg/mL

Question: And the IL-2 cytokine concentration [4]?
Answer: 139.68 pg/mL

Question: And the IL-4 cytokine concentration [4]?
Answer: 72.42 pg/mL

Question: What about the IL-5 cytokine concentration [4] of the same substance?
Answer: 14.37 pg/mL

Question: And the IL-6 cytokine concentration [4]?
Answer: 117.88 pg/mL

Question: And the IL-9 cytokine concentration [4]?
Answer: 34.99 pg/mL

Question: And the IL-10 cytokine concentration [4]?
Answer: 164.01 pg/mL

Question: What about the IL-12 cytokine concentration [4] of the same substance?
Answer: 0 pg/mL

Question: And the IL-12p70 cytokine concentration [4]?
Answer: 0 pg/mL

Question: What about the IL-13 cytokine concentration [4] of the same substance?
Answer: 185.71 pg/mL

Question: And the IL-17 cytokine concentration [4]?
Answer: 139.74 pg/mL

Question: And the IL-22 cytokine concentration [4]?
Answer: 0 pg/mL

Question: And the INF-α cytokine concentration [4]?
Answer: 0 pg/mL

Question: What about the TNF-a cytokine concentration [4] of the same substance?
Answer: 59.06 pg/mL

Question: And the TNF-α cytokine concentration [4]?
Answer: 59.06 pg/mL

Question: And the IFN-γ cytokine concentration [5]?
Answer: 1049.41 pg/mL

Question: And the IL-1 cytokine concentration [5]?
Answer: 69689.2 pg/mL

Question: What about the IL-2 cytokine concentration [5] of the same substance?
Answer: 12000 pg/mL

Question: And the IL-4 cytokine concentration [5]?
Answer: 200.9 pg/mL

Question: And the IL-5 cytokine concentration [5]?
Answer: 145.89 pg/mL

Question: And the IL-6 cytokine concentration [5]?
Answer: 1542.01 pg/mL

Question: What about the IL-9 cytokine concentration [5] of the same substance?
Answer: 187.5 pg/mL

Question: What about the IL-10 cytokine concentration [5] of the same substance?
Answer: 4311.06 pg/mL

Question: What about the IL-12p70 cytokine concentration [5] of the same substance?
Answer: 1161.04 pg/mL

Question: And the IL-13 cytokine concentration [5]?
Answer: 462.62 pg/mL

Question: And the IL-17 cytokine concentration [5]?
Answer: 2836.14 pg/mL

Question: And the IL-22 cytokine concentration [5]?
Answer: 24400.4 pg/mL

Question: And the TNF-α cytokine concentration [5]?
Answer: 3600 pg/mL

Question: And the IFN-γ cytokine concentration [6]?
Answer: 10814.4 pg/mL

Question: What about the IL-1 cytokine concentration [6] of the same substance?
Answer: 530.55 pg/mL

Question: And the IL-2 cytokine concentration [6]?
Answer: 2307.5 pg/mL

Question: What about the IL-4 cytokine concentration [6] of the same substance?
Answer: 70.32 pg/mL

Question: And the IL-5 cytokine concentration [6]?
Answer: 278.92 pg/mL

Question: What about the IL-6 cytokine concentration [6] of the same substance?
Answer: 1241.17 pg/mL

Question: And the IL-9 cytokine concentration [6]?
Answer: 264.59 pg/mL

Question: What about the IL-10 cytokine concentration [6] of the same substance?
Answer: 977.83 pg/mL

Question: And the IL-12 cytokine concentration [6]?
Answer: 0 pg/mL

Question: And the IL-12p70 cytokine concentration [6]?
Answer: 0 pg/mL

Question: What about the IL-13 cytokine concentration [6] of the same substance?
Answer: 1065.69 pg/mL

Question: And the IL-17 cytokine concentration [6]?
Answer: 1660.92 pg/mL

Question: And the IL-22 cytokine concentration [6]?
Answer: 0 pg/mL

Question: What about the INF-α cytokine concentration [6] of the same substance?
Answer: 10814.35 pg/mL

Question: And the TNF-a cytokine concentration [6]?
Answer: 3346.46 pg/mL

Question: And the TNF-α cytokine concentration [6]?
Answer: 3346.46 pg/mL

Source: US10954269B2, “Anti-inflammatory tripeptides” (Dr. August Wolff Gmbh & Co. KG Arzneimittel, priority 2013, dated 2021)
